Measurements reported in ChEMBL document CHEMBL1134187, “Synthesis and antitumor evaluation of novel monoindolyl-4-trifluoromethylpyridines and bisindolyl-4-trifluoromethylpyridines” (Bioorg Med Chem Lett, 2001).

Assays:
[1] = tested on: A549; test: Inhibition of proliferation of A549 cells at concentration of 0.1 uM was determined; assay type: functional; conditions: Homo sapiens
[2] = tested on: A549; test: Inhibition of proliferation of A549 cells at concentration of 10 uM was determined; assay type: functional; conditions: Homo sapiens
[3] = tested on: A549; test: Concentration for in vitro cytotoxicity against A-549 human lung tumor cells; assay type: functional, cell-based
[4] = tested on: A549; test: Inhibition of proliferation of A549 cells at concentration of 100 uM was determined; assay type: functional; conditions: Homo sapiens
[5] = tested on: A549; test: Inhibition of proliferation of A549 cells at concentration of 1 uM was determined; assay type: functional; conditions: Homo sapiens
[6] = tested on: P388; test: Inhibition of proliferation of […] at concentration of 100 uM was determined; assay type: functional; conditions: Mus musculus
[7] = tested on: P388; test: Concentration for in vitro cytotoxicity against murine P388 leukemia cells; assay type: functional, cell-based; conditions: Mus musculus
[8] = tested on: P388; test: Inhibition of proliferation of […] at concentration of 1 uM was determined; assay type: functional; conditions: Mus musculus
[9] = tested on: P388; test: Inhibition of proliferation of […] at concentration of 0.1 uM was determined; assay type: functional; conditions: Mus musculus
[10] = tested on: P388; test: Inhibition of proliferation of […] at concentration of 10 uM was determined; assay type: functional; conditions: Mus musculus

Structure (SMILES)	inhibition at 0.1 µM [1]	inhibition at 10 µM [2]	IC50 [3]	inhibition at 100 µM [4]	inhibition at 1 µM [5]	inhibition at 100 µM [6]	IC50 [7]	inhibition at 1 µM [8]	inhibition at 0.1 µM [9]	inhibition at 10 µM [10]
Cc1ccc(S(=O)(=O)n2cc(-c3cc(C(F)(F)F)ccn3)c3cc(OCc4ccccc4)ccc32)cc1	16.9%	9.9%	> 100 µM	35.9%	23.2%	2.2%	> 100 µM			
Cc1ccc(S(=O)(=O)n2cc(-c3cc(C(F)(F)F)cc(-c4cn(S(=O)(=O)c5ccc(C)cc5)c5cc(Br)ccc45)n3)c3ccc(Br)cc32)cc1	25.8%	32%	> 100 µM	49.2%	30.7%	8.9%	> 100 µM	10%	8.1%	15.1%
COc1ccc2c(-c3cc(C(F)(F)F)cc(-c4cn(S(=O)(=O)c5ccc(C)cc5)c5cc(OC)ccc45)n3)cn(S(=O)(=O)c3ccc(C)cc3)c2c1	1.7%	28.8%	1.7 µM	97.1%	35.5%	99.9%	4.3 µM			92.8%
Cc1ccc(S(=O)(=O)n2cc(-c3cc(C(F)(F)F)cc(-c4cn(S(=O)(=O)c5ccc(C)cc5)c5ccccc45)n3)c3ccccc32)cc1	37.5%	27.6%	23 µM	69.3%	36.7%	14.7%	> 100 µM	20.9%	15.7%	23.5%
COc1ccc2c(c1)c(-c1cc(C(F)(F)F)ccn1)cn2S(=O)(=O)c1ccc(C)cc1	16.9%	14.1%	> 100 µM	51.8%	23.2%	15.6%	> 100 µM			
COc1ccc2c(-c3cc(C(F)(F)F)c(C#N)c(-c4cn(S(=O)(=O)c5ccc(C)cc5)c5cc(OC)ccc45)n3)cn(S(=O)(=O)c3ccc(C)cc3)c2c1	33%	13.3%	> 100 µM	21.2%	26.7%	3.8%	> 100 µM	9.1%	5.1%	10.1%
COc1ccc2c(c1)c(-c1cc(C(F)(F)F)c(C#N)c(-c3cn(S(=O)(=O)c4ccc(C)cc4)c4ccc(OC)cc34)n1)cn2S(=O)(=O)c1ccc(C)cc1	25%	25.2%	> 100 µM	17.7%	24.4%		> 100 µM		1.7%	3.5%
Cc1ccc(S(=O)(=O)n2cc(-c3cc(C(F)(F)F)ccn3)c3cc(Br)ccc32)cc1	38.9%	20.6%	4.1 µM	98%	32.8%	32.6%	> 100 µM	17.8%	9.7%	21.9%
Cc1ccc(S(=O)(=O)n2cc(-c3cc(C(F)(F)F)c(C#N)c(-c4cn(S(=O)(=O)c5ccc(C)cc5)c5ccc(Br)cc45)n3)c3cc(Br)ccc32)cc1	9.8%	9.6%	78 µM	70.6%	17.4%	8.2%	> 100 µM	3.7%		
COc1ccc2c(c1)c(-c1cc(C(F)(F)F)cc(-c3cn(S(=O)(=O)c4ccc(C)cc4)c4ccc(OC)cc34)n1)cn2S(=O)(=O)c1ccc(C)cc1	16.7%	22.2%	> 100 µM	41.7%	7.1%	13.8%	> 100 µM	7%	9.3%	5%
Cc1ccc(S(=O)(=O)n2cc(-c3cc(C(F)(F)F)c(C#N)c(-c4cn(S(=O)(=O)c5ccc(C)cc5)c5cc(Br)ccc45)n3)c3ccc(Br)cc32)cc1	23.8%	27.6%	> 100 µM	48.1%	18.8%	1.3%	> 100 µM	1.7%	3.1%	5.7%
Cc1ccc(S(=O)(=O)n2cc(-c3cc(C(F)(F)F)ccn3)c3ccccc32)cc1	25%	35%	25 µM	68.4%	23.8%	49.9%	> 100 µM	10.5%		
